Results reported in US20120165408A1, “ORAL COMPOSITION FOR ALLEVIATING ROUGH SKIN” (Shiseido Company, Ltd., priority 2009, published 2012).

Key:
[1] = test system: skin barrier function in SDS-treated mice; experiment: Rough skin experiment, long term (28-day) oral administration: transepidermal water loss after SDS treatment; format: in vivo, HR-1 hairless mice; conditions: 10 mM in drinking water, two hours after the second SDS treatment (28th day); for Δ(delta) TEWL value: negative control 2.4
Procedure: The administration of the amino acid, the rough skin experiments and the quantification of the transepidermal water loss were conducted similarly to Example 1 using the HR-1 hairless mice described above. The amino acid employed was 10 mM L- or D-glutamic acid or L- or D-glutamine. The negative control employed was drinking water containing no amino acid. The SDS treatment was conducted on the 27th and 28th days after starting the administration of the amino acid. In this Example, the SDS treatments on the 27th and 28th days after starting the administration of the amino acid described above are referred to as the first and the second SDS treatments, respectively. The quantification of the transepidermal water loss was conducted two hours after the second SDS treatment.
The error bars for relevant experimental conditions are the standard deviations of the measured values of the results of the experiments repeated five times under identical conditions. The asterisk (*) indicates p<5% by Dunnett's test.

[2] = test system: skin barrier function in SDS-treated mice; experiment: Rough skin experiment, short term (11-day) oral administration: transepidermal water loss after SDS treatment; format: in vivo, HR-1 hairless mice; conditions: for Δ(delta) TEWL value: difference from the negative control (Dunnett's test, p<5%): 2 hours after the second SDS treatment
Procedure: HR-1 hairless mice (males, seven-week old, Hoshino Laboratory Animals, Inc.) were subjected to the experiment. Each experimental group included seven to eight mice.
In order to examine the effect of the amino acid on the rough skin, 1 mM or 10 mM D-glutamic acid was given with drinking water. The negative control employed was drinking water containing no D-glutamic acid.
An unwoven fabric soaked with a 10% SDS solution was brought into contact for five minutes with one side of the back of a mouse under anesthesia (hereinafter referred to as “SDS treatment”) on the 10th and 11th days after starting the administration of D-glutamic acid. The SDS treatment may be conducted two to five times repetitively until the rough skin becomes evident. In this Example, the SDS treatments on the 10th and 11th days after starting the administration of D-glutamic acid are referred to as the first and the second SDS treatments, respectively. Also in the following transepidermal water loss measurements, an area treated with SDS is referred to as an “SDS treated area,” while an area of the opposite side which was not treated with SDS is referred to as an “SDS non-treated area.”
In order to quantify the rough skin condition, the transepidermal water loss was measured immediately before the first SDS treatment (before SDS treatment) and two hours after the first and the second SDS treatments using a transepidermal water loss meter (Tewameter TM-300, manufactured by Courage+Khazaka electronic GmbH) in accordance with the instruction provided by the manufacturer. Here, the value obtained by subtracting the quantity of the transepidermal water loss of the SDS non-treated area from the quantity of the transepidermal water loss of the SDS treated area was regarded as a “Δ(delta) TEWL value.”
The error bars for relevant experimental conditions are the standard deviations of the measured values of the results of the experiments seven to eight times under identical conditions. The asterisk (*) indicates p<5% by Dunnett's test.

Row | Compound | Δ(delta) TEWL value: difference from the negative control (Dunnett's test, p<5%) [1] | Δ(delta) TEWL value [1] | Δ(delta) TEWL value: difference from the negative control (Dunnett's test, p<5%) ([2]; 1 mM in drinking water) | Δ(delta) TEWL value ([2]; 1 mM in drinking water, immediately before the first SDS treatment (10th day), negative control 0.7) | Δ(delta) TEWL value ([2]; 1 mM in drinking water, two hours after the first SDS treatment (10th day), negative control 2.2) | Δ(delta) TEWL value ([2]; 1 mM in drinking water, two hours after the second SDS treatment (11th day), negative control 7.0) | Δ(delta) TEWL value: difference from the negative control (Dunnett's test, p<5%) ([2]; 10 mM in drinking water) | Δ(delta) TEWL value ([2]; 10 mM in drinking water, immediately before the first SDS treatment (10th day), negative control 0.7) | Δ(delta) TEWL value ([2]; 10 mM in drinking water, two hours after the first SDS treatment (10th day), negative control 2.2) | Δ(delta) TEWL value ([2]; 10 mM in drinking water, two hours after the second SDS treatment (11th day), negative control 7.0)
1 | N[C@@H](CCC(=O)O)C(=O)O [L-glutamic acid] | no significant difference | 1.1 g/m^2/h |  |  |  |  |  |  |  | 
2 | NC(=O)CC[C@@H](N)C(=O)O [D-glutamine] | no significant difference | 3.3 g/m^2/h |  |  |  |  |  |  |  | 
3 | NC(=O)CC[C@H](N)C(=O)O [L-glutamine] | no significant difference | 2.3 g/m^2/h |  |  |  |  |  |  |  | 
4 | N[C@H](CCC(=O)O)C(=O)O [D-glutamic acid] | significant difference | −0.9 g/m^2/h | significant difference | 0.4 g/m^2/h | 1.5 g/m^2/h | 3.2 g/m^2/h | significant difference | 0.1 g/m^2/h | 1.2 g/m^2/h | 3.8 g/m^2/h
